From the supplement of paper PMC11208160
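Also: IS621 recombinase and bridge RNA in Escherichia coli cells.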

Test: recombinant barcode read abundance after kanamycin selection (control-corrected) (log10(CPM+1)); higher = more efficient recombination; sequences stand for … in AGTGCAGAGAAAATCGGCCAGTTTTCTCTGCCTGCAGTCCGCATGCCGT…AGATTTATGCAGCGGACTGCCTTTCTCCCAAAGTGATAAACCGGACAGTATCATGGACCGGTTTTCCCGGTAATCCGTATTTGCAAGGTTGGTTTCACT; site = the 11-nt target
Procedure, shortened: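 Each value is log10(CPM+1). It describes recombination efficiency, taken as averaged, control-corrected counts per million of barcodes at recombinant junctions. The pooled E. coli library paired targets with IS621 bridge RNA target-binding loops, was co-electroporated with a donor plasmid, and was plated twice on chloramphenicol/ampicillin LB agar (control) and twice on chloramphenicol/ampicillin/kanamycin containing 0.1 mM IPTG.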
With “TCACTAGCTTGGGTTCTAACCTGTTGCCT (site TCACTAGCTAG)” the “recombinant barcode read abundance (log10)” value was 0.0596.
With “TCACTAGCTTGGGTTCTAACCTGTTGCCT (site TTACGAGCTAG)” the “recombinant barcode read abundance (log10)” value was 0.
With “TCAGACCCTTGGGTTCTAACCTGTTGCCT (site TAAGACCCTAG)” the “recombinant barcode read abundance (log10)” value was 0.417.
In the case of “TCAGACCCTTGGGTTCTAACCTGTTGCCT (site TCAGACCCTAG)”, the “recombinant barcode read abundance (log10)” value is reported as 2.31.
For “TCAGAGGCTTGGGTTCTAACCTGTTGCTG (site TCAGAGGCTCA)”, the “recombinant barcode read abundance (log10)” value was 0.623.
In the case of “TCAGAGGCTTGGGTTCTAACCTGTTGCTG (site TCCGAGGCTCA)”, the “recombinant barcode read abundance (log10)” value is reported as 0.118.
With “TCAGAGGCTTGGGTTCTAACCTGTTGCTG (site TCGGAGGCTCA)” the “recombinant barcode read abundance (log10)” value was 0.0529.
For “TCAGAGGCTTGGGTTCTAACCTGTTGCTG (site TCTGAGGCTCA)”, the “recombinant barcode read abundance (log10)” value was 0.156.
For “TCAGATTCTTGGGTTCTAACCTGTTGCCT (site TCAAATTCTAG)”, the “recombinant barcode read abundance (log10)” value was 0.0231.
For “TCAGATTCTTGGGTTCTAACCTGTTGCCT (site TCACATTCTAG)”, the “recombinant barcode read abundance (log10)” value was 0.0298.
In the case of “TCAGATTCTTGGGTTCTAACCTGTTGCCT (site TCAGATTCTAG)”, the “recombinant barcode read abundance (log10)” value is reported as 0.78.
In the case of “TCAGATTCTTGGGTTCTAACCTGTTGCCT (site TCATATTCTAG)”, the “recombinant barcode read abundance (log10)” value is reported as 0.114.
In the case of “TCAGGAGCTTGGGTTCTAACCTGTTGCGG (site TCAGGAGCTCC)”, the “recombinant barcode read abundance (log10)” value is reported as 2.07.
With “TCAGGAGCTTGGGTTCTAACCTGTTGCGG (site TCAGGAGCTCT)” the “recombinant barcode read abundance (log10)” value was 1.85.
For “TCAGGCCCTTGGGTTCTAACCTGTTGCCT (site TAAGGCCCTAA)”, the “recombinant barcode read abundance (log10)” value was 0.0837.
In the case of “TCAGGCCCTTGGGTTCTAACCTGTTGCCT (site TCAGGCCCTAG)”, the “recombinant barcode read abundance (log10)” value is reported as 0.702.
For “TCATGACCTTGGGTTCTAACCTGTTGCAT (site CTTAACACTCG)”, the “recombinant barcode read abundance (log10)” value was 0.159.
In the case of “TCATGACCTTGGGTTCTAACCTGTTGCAT (site TCATGACCTAT)”, the “recombinant barcode read abundance (log10)” value is reported as 1.29.
In the case of “TCCAACACTTGGGTTCTAACCTGTTGCCG (site TCCAACACTCG)”, the “recombinant barcode read abundance (log10)” value is reported as 0.574.
In the case of “TCCAACACTTGGGTTCTAACCTGTTGCCG (site TCCAATACTCG)”, the “recombinant barcode read abundance (log10)” value is reported as 0.24.
With “TCCAACCCTTGGGTTCTAACCTGTTGCCA (site GCCAACCCTTA)” the “recombinant barcode read abundance (log10)” value was 0.0929.
In the case of “TCCAACCCTTGGGTTCTAACCTGTTGCCA (site TCCAACCCTTG)”, the “recombinant barcode read abundance (log10)” value is reported as 0.715.
With “TCCAAGGCTTGGGTTCTAACCTGTTGCCT (site TCAAAGGCTAG)” the “recombinant barcode read abundance (log10)” value was 0.0841.
In the case of “TCCAAGGCTTGGGTTCTAACCTGTTGCCT (site TCCAAGGCTAG)”, the “recombinant barcode read abundance (log10)” value is reported as 0.107.
With “TCCAAGGCTTGGGTTCTAACCTGTTGCCT (site TCGAAGGCTAG)” the “recombinant barcode read abundance (log10)” value was 0.147.
For “TCCAAGGCTTGGGTTCTAACCTGTTGCCT (site TCTAAGGCTAG)”, the “recombinant barcode read abundance (log10)” value was 1.48.
For “TCCACAACTTGGGTTCTAACCTGTTGCCT (site TCCACAACTAG)”, the “recombinant barcode read abundance (log10)” value was 0.273.
With “TCCACAACTTGGGTTCTAACCTGTTGCCT (site TCCACACCTAG)” the “recombinant barcode read abundance (log10)” value was 0.122.
With “TCCACAACTTGGGTTCTAACCTGTTGCCT (site TCCACAGCTAG)” the “recombinant barcode read abundance (log10)” value was 0.283.
For “TCCACAACTTGGGTTCTAACCTGTTGCCT (site TCCACATCTAG)”, the “recombinant barcode read abundance (log10)” value was 0.193.
In the case of “TCCACATCTTGGGTTCTAACCTGTTGCCT (site TCCACAACTAG)”, the “recombinant barcode read abundance (log10)” value is reported as 0.0262.
For “TCCACATCTTGGGTTCTAACCTGTTGCCT (site TCCACACCTAG)”, the “recombinant barcode read abundance (log10)” value was 0.793.
For “TCCACATCTTGGGTTCTAACCTGTTGCCT (site TCCACAGCTAG)”, the “recombinant barcode read abundance (log10)” value was 0.00992.
With “TCCACATCTTGGGTTCTAACCTGTTGCCT (site TCCACATCTAG)” the “recombinant barcode read abundance (log10)” value was 0.477.
In the case of “TCCATCCCTTGGGTTCTAACCTGTTGCTA (site TCCAGTCCTTA)”, the “recombinant barcode read abundance (log10)” value is reported as 0.0637.
For “TCCATCCCTTGGGTTCTAACCTGTTGCTA (site TCCATCCCTTA)”, the “recombinant barcode read abundance (log10)” value was 0.605.
In the case of “TCCCAGTCTTGGGTTCTAACCTGTTGCAT (site TCCCAGTCTAA)”, the “recombinant barcode read abundance (log10)” value is reported as 0.542.
With “TCCCAGTCTTGGGTTCTAACCTGTTGCAT (site TCCCAGTCTAC)” the “recombinant barcode read abundance (log10)” value was 0.104.
For “TCCCAGTCTTGGGTTCTAACCTGTTGCAT (site TCCCAGTCTAG)”, the “recombinant barcode read abundance (log10)” value was 0.242.
With “TCCCAGTCTTGGGTTCTAACCTGTTGCAT (site TCCCAGTCTAT)” the “recombinant barcode read abundance (log10)” value was 1.88.
For “TCCCAGTCTTGGGTTCTAACCTGTTGCCT (site TCCCAGTCTAA)”, the “recombinant barcode read abundance (log10)” value was 0.0986.
In the case of “TCCCAGTCTTGGGTTCTAACCTGTTGCCT (site TCCCAGTCTAC)”, the “recombinant barcode read abundance (log10)” value is reported as 0.889.
For “TCCCAGTCTTGGGTTCTAACCTGTTGCCT (site TCCCAGTCTAG)”, the “recombinant barcode read abundance (log10)” value was 1.82.
With “TCCCAGTCTTGGGTTCTAACCTGTTGCCT (site TCCCAGTCTAT)” the “recombinant barcode read abundance (log10)” value was 0.594.
For “TCCCAGTCTTGGGTTCTAACCTGTTGCGT (site TCCCAGTCTAA)”, the “recombinant barcode read abundance (log10)” value was 0.433.
With “TCCCAGTCTTGGGTTCTAACCTGTTGCGT (site TCCCAGTCTAC)” the “recombinant barcode read abundance (log10)” value was 2.59.
For “TCCCAGTCTTGGGTTCTAACCTGTTGCGT (site TCCCAGTCTAG)”, the “recombinant barcode read abundance (log10)” value was 0.375.
In the case of “TCCCAGTCTTGGGTTCTAACCTGTTGCGT (site TCCCAGTCTAT)”, the “recombinant barcode read abundance (log10)” value is reported as 1.6.
With “TCCCAGTCTTGGGTTCTAACCTGTTGCTT (site TCCCAGTCTAA)” the “recombinant barcode read abundance (log10)” value was 0.681.
For “TCCCAGTCTTGGGTTCTAACCTGTTGCTT (site TCCCAGTCTAC)”, the “recombinant barcode read abundance (log10)” value was 0.0373.
For “TCCCAGTCTTGGGTTCTAACCTGTTGCTT (site TCCCAGTCTAG)”, the “recombinant barcode read abundance (log10)” value was 0.684.
With “TCCCAGTCTTGGGTTCTAACCTGTTGCTT (site TCCCAGTCTAT)” the “recombinant barcode read abundance (log10)” value was 1.19.
For “TCCCATACTTGGGTTCTAACCTGTTGCCT (site TCCCATACTAG)”, the “recombinant barcode read abundance (log10)” value was 0.493.
For “TCCCATACTTGGGTTCTAACCTGTTGCCT (site TCCCATCCTAG)”, the “recombinant barcode read abundance (log10)” value was 0.33.
With “TCCCATACTTGGGTTCTAACCTGTTGCCT (site TCCCATGCTAG)” the “recombinant barcode read abundance (log10)” value was 0.109.
With “TCCCATACTTGGGTTCTAACCTGTTGCCT (site TCCCATTCTAG)” the “recombinant barcode read abundance (log10)” value was 0.0766.
With “TCCCCGGCTTGGGTTCTAACCTGTTGCCT (site TACCCGCCTAG)” the “recombinant barcode read abundance (log10)” value was 0.0487.
For “TCCCCGGCTTGGGTTCTAACCTGTTGCCT (site TCCCCGGCTAG)”, the “recombinant barcode read abundance (log10)” value was 0.285.
For “TCCCGAACTTGGGTTCTAACCTGTTGCCT (site TCCCGAACTAG)”, the “recombinant barcode read abundance (log10)” value was 0.598.
For “TCCCGAACTTGGGTTCTAACCTGTTGCCT (site TCCCGACCTAG)”, the “recombinant barcode read abundance (log10)” value was 0.337.
For “TCCCGAACTTGGGTTCTAACCTGTTGCCT (site TCCCGAGCTAG)”, the “recombinant barcode read abundance (log10)” value was 0.173.
With “TCCCGAACTTGGGTTCTAACCTGTTGCCT (site TCCCGATCTAG)” the “recombinant barcode read abundance (log10)” value was 0.0125.
For “TCCCGTCCTTGGGTTCTAACCTGTTGCCT (site TCCCGTCCTAG)”, the “recombinant barcode read abundance (log10)” value was 0.636.
With “TCCCGTCCTTGGGTTCTAACCTGTTGCCT (site TCCCTTCCTAG)” the “recombinant barcode read abundance (log10)” value was 0.196.
For “TCCGACACTTGGGTTCTAACCTGTTGCCT (site TACGACACTAG)”, the “recombinant barcode read abundance (log10)” value was 0.227.
In the case of “TCCGACACTTGGGTTCTAACCTGTTGCCT (site TCCGACACTAG)”, the “recombinant barcode read abundance (log10)” value is reported as 1.95.
In the case of “TCCGAGACTTGGGTTCTAACCTGTTGCGT (site TCCGAGACTAC)”, the “recombinant barcode read abundance (log10)” value is reported as 1.56.
With “TCCGAGACTTGGGTTCTAACCTGTTGCGT (site TTCGAAACTAC)” the “recombinant barcode read abundance (log10)” value was 0.226.
With “TCCGAGCCTTGGGTTCTAACCTGTTGCGT (site TCCGAGCCTAC)” the “recombinant barcode read abundance (log10)” value was 2.18.
For “TCCGAGCCTTGGGTTCTAACCTGTTGCGT (site TCCGAGCCTAT)”, the “recombinant barcode read abundance (log10)” value was 1.03.
For “TCCGAGGCTTGGGTTCTAACCTGTTGCTG (site TCAGAGGCTCA)”, the “recombinant barcode read abundance (log10)” value was 0.266.
In the case of “TCCGAGGCTTGGGTTCTAACCTGTTGCTG (site TCCGAGGCTCA)”, the “recombinant barcode read abundance (log10)” value is reported as 0.739.
For “TCCGAGGCTTGGGTTCTAACCTGTTGCTG (site TCGGAGGCTCA)”, the “recombinant barcode read abundance (log10)” value was 0.521.
For “TCCGAGGCTTGGGTTCTAACCTGTTGCTG (site TCTGAGGCTCA)”, the “recombinant barcode read abundance (log10)” value was 0.241.
In the case of “TCCGATACTTGGGTTCTAACCTGTTGCGT (site GTGTGGCCTTG)”, the “recombinant barcode read abundance (log10)” value is reported as 0.11.
In the case of “TCCGATACTTGGGTTCTAACCTGTTGCGT (site TCCGATACTAC)”, the “recombinant barcode read abundance (log10)” value is reported as 1.64.
In the case of “TCCGGCGCTTGGGTTCTAACCTGTTGCGG (site CTTACTACTTG)”, the “recombinant barcode read abundance (log10)” value is reported as 0.0112.
For “TCCGGCGCTTGGGTTCTAACCTGTTGCGG (site TCCGGCGCTCC)”, the “recombinant barcode read abundance (log10)” value was 1.75.
With “TCCGTATCTTGGGTTCTAACCTGTTGCAG (site GAGTGGCCTTC)” the “recombinant barcode read abundance (log10)” value was 0.16.
For “TCCGTATCTTGGGTTCTAACCTGTTGCAG (site TCCGTATCTCT)”, the “recombinant barcode read abundance (log10)” value was 1.05.
For “TCCGTCCCTTGGGTTCTAACCTGTTGCAT (site TCCGACCCTGT)”, the “recombinant barcode read abundance (log10)” value was 0.0832.
For “TCCGTCCCTTGGGTTCTAACCTGTTGCAT (site TCCGTCCCTAT)”, the “recombinant barcode read abundance (log10)” value was 1.4.
In the case of “TCCGTGACTTGGGTTCTAACCTGTTGCCT (site TCCGTGACTAG)”, the “recombinant barcode read abundance (log10)” value is reported as 2.07.
For “TCCGTGACTTGGGTTCTAACCTGTTGCCT (site TCCGTGCCTAG)”, the “recombinant barcode read abundance (log10)” value was 0.
In the case of “TCCGTGACTTGGGTTCTAACCTGTTGCCT (site TCCGTGGCTAG)”, the “recombinant barcode read abundance (log10)” value is reported as 0.436.
For “TCCGTGACTTGGGTTCTAACCTGTTGCCT (site TCCGTGTCTAG)”, the “recombinant barcode read abundance (log10)” value was 0.352.
